From US20090232909A1, “Method for determining physiological effects of hemoglobin” (priority 1999, published 2009) come the findings set out here.

For assay [1], the target named is Hb (Homo sapiens, UniProt P68871+P69905). In words: Titration of normoxic Hb with NO, fitted UV-visible difference spectra. More on the design: purchased Apex Bioscience (Research Triangle Park, N.C.). It counts as biochemical. On the procedure:
Air-oxygenated Hb was titrated with 0.22 μM NO. Samples were analyzed immediately after NO addition by UV-visible spectrophotometry. Time between additions varied from 3 to 5 minutes.
The extinction coefficient spectra of metHb, deoxyhb, iron nitrosylHb and oxyHb were generated from pure solutions of each species. HbA was diluted into PBS (pH 7.4) to a known final heme concentration [as calculated by the pyridine-hemochromagen method (Antonini, E., et al., p. 13 in Frontiers in Biology, Neuberger, A. and Tatum, E. L. eds., North-Holland Publishing, Co., Amsterdam, London, 1971)]. MetHb was synthesized by adding excess K3FeCN6. DeoxyHb was measured after the addition of dithionite, and nitrosyl- and oxyHb were measured following saturation with each ligand.
Difference spectra were obtained by subtracting the UV-visible spectrum of a given sample before the addition of NO from those after. The simple competition model discussed above, predicts that such difference spectra could be approximated by a linear combination of two standard difference spectra: an oxyHb minus metHb spectrum, which gauges the progress of the NO oxidation reaction, and a deoxyHb minus iron nitrosyHb, which gauges the NO addition reaction; the sum of the combining coefficients is fixed by the mass balance ([NO]0). Standard difference spectra were obtained from UV-visible spectra of authentic samples of metHb, oxyHb, nitrosylHb, and deoxyHb. We determined combining coefficients by a least-squares fitting procedure. Inasmuch as the deoxy- and/or oxyheme concentrations can decline during the competition, an additional component (deoxyHb minus oxyHb) could be expected.
(A) Nitrosyl content of oxyHb (10 mM phosphate 100 μM DTPA, pH 7.4) after exposure to 1.2 μM NO, as measured by photolysis-chemiluminescence (Stamler, J. S., et al., Science, 276:2034-2037, 1997). Nitrosyl yield increases as a function of Hb concentration (P<0.05). Solid symbols, absolute yield of NO bound to Hb (FeNO plus SNO); open symbols, percentage of NO added. Data shown are the average of 7 to 19 experiments±SE. (B) Standard difference spectra of metHb (solid line), deoxyHb (dotted line), and iron nitrosylHb (dashed line) vs. oxyHb. (C) Difference spectra generated from the exposure of NO to normoxic (≈99% oxygen saturation) Hb. NO was added (in 10 aliquots totaling 2.2 μM) to 33 μM Hb in 100 mM phosphate (solid line) or 10 mM phosphate (dotted line) or 10 mM phosphate plus 0.05% borate (dashed line). […] Specifically, spectra in C were fitted, by a least-squares process, to either the simple competition model or the cooperativity model without a mass balance constraint. Cooperativity is present if add increases above that reported in the literature, as a function of oxygen tension.

Assay [2] relates to inside-out vesicles (IOV). Description: Transnitrosylation of inside-out vesicles (IOV) by SNO-Hb. It counts as biochemical. The following applies: IOVs (or source RBCs) treated before incubation with SNO-Hb. The procedure:
RBCs derived from fresh venous blood and suspended in oxygen-purged phosphate-buffered saline (PBS) were exposed in gas-tight vials to NO, added as aliquots of oxygen-purged NO-saturated PBS to yield the specified NO:heme ratios based on spectrophotometric assessment of heme content. Exposure to NO was for 5 mins followed by rinses in PBS at 21% O2. RBCs were lysed in 10 mM MOPS, 0.1 mM DTPA, pH 7, followed by centrifugation at 20,000×g for 10 mins to produce membrane and cytosolic fractions, which were solubilized in 1% TX-100. Quantification of NO groups was by photolysis/chemiluminescence (McMahon, T. J. & Stamler, J. S., Meth. Enzymol. 301:99-114, 1999). SNO content was measured as NO removed by treating sample aliquots for 5 mins with HgCl2 at 5-fold molar excess over estimated thiol content (Gow, A. J. & Stamler, J. S., Nature 391:169-173, 1998; Gow, A. J. et al., Proc. Natl. Acad. Sci. USA 96:9027-9032, 1999; McMahon, T. J. & Stamler, J. S., Meth. Enzymol. 301:99-114, 1999). IOVs were prepared from outdated RBCs following Kondo (Kondo, T., Meth. Enzymol. 171:217-225, 1989) and stripped of peripheral membrane-bound proteins by washing for 60 mins in 0.5 M NaCl/100 mM Tris at pH 8. Chymotrypsin treatment of IOVs was for 15 mins at pH 7 and 37° C. with 5 U enzyme/mg IOV protein. For transnitrosylation, IOVs were incubated with SNO-Hb (50 nmoles SNO-Hb/mg IOV protein, about 10-fold excess over AE1) for 15 mins at pH 7 and 37° C. SNO-Hb was prepared from free or immobilized HbA (Apex) by selective S-nitrosylation of cysβ93 with S-nitroso-cysteine (Jia, L. et al., Nature 380:221-226, 1996; Stamler, J. S. et al., Science 276:2034-2037, 1997; McMahon, T. J. & Stamler, J. S., Meth. Enzymol. 301:99-114, 1999). Hb was immobilized on cyanogen bromide-activated Sepharose 4b.
Immunoprecipitation was carried out by incubation of TX-100 or NP-40 extracts with antibodies followed by protein G-Sepharose. […] Binding of SNO-Hb to IOVs was assessed in 10 mM MOPS buffer, pH 7, at room temperature and 21% O2. Incubation was for 15 mins before IOVs were solubilized in 1% TX-100, and heme content was assessed spectrophotometrically. When employed, RBCs were treated for 60 mins with DIDS (0.1 mM; calculated 10-fold molar excess over AE1), then washed thoroughly to remove unreacted DIDS. […]
IOVs incubated with SNO-Hb and washed at pH 8 to remove bound Hb incorporated about 450 pmol NO/milligram of TX-100-extracted IOV protein (FIG. 7D). […] It is important to note that SNO was not detected in extracts of IOVs exposed to NO in the absence of Hb (not shown). […] Following centrifugal separation, washes at pH 7 and solubilization in TX-100, extracts of IOVs were free of Hb as assessed by spectrophotometric detection of heme.

Entries after “also recorded” stand apart in the source; their conditions may differ.

On to `[N]=O` [NO, nitric oxide], for which the “iron nitrosylHb in fitted difference spectrum” value in assay [1] (2.2 μM NO, 33 μM Hb, 10 mM phosphate, ≈99% O2) is reported as 54%; in assay [1] (10 mM phosphate plus 0.05% borate), 85%. The “metHb in fitted difference spectrum” value in assay [1] (2.2 μM NO, 33 μM Hb, 100 mM phosphate, ≈99% O2) is on record as 95%. Also, the “added NO accounted for by the spectra” value came out at 50% in assay [1] (10 mM (low) phosphate) and 80% in assay [1] (low phosphate plus borate).

On to `O=S(=O)(O)c1cc(N=C=S)ccc1C=Cc1ccc(N=C=S)cc1S(=O)(=O)O` [DIDS, 4,4′-diisothiocyanatostilbene-2,2′-disulfonic acid], for which the “effect of prior treatment on transfer of NO groups from SNO-Hb to IOVs” value in assay [2] was “reduced significantly; also recorded: greatly reduced”.
